Data: patent publication US10183919B2 (priority 2014, dated 2019)

biological target: T1, Human MOR (Homo sapiens, UniProt P35372); experiment: cell-based; conditions: not given
T1 construct: expressed in transfected cells; host or cells: HEK-293T
Excerpt: Transfection. Human or mouse MOR cDNA was transfected alongside GαoB with RLuc8 inserted at position 91 (GαoB-RLuc8), Gβ1 (β1), and Gγ2 fused to the full-length mVenus at its N terminus (mVenus-γ2) into HEK-293T cells (5×10^6 cells/plate) in 10-cm dishes using PEI (Polysciences Inc.; Warrington, Pa.) in a 1:1 ratio diluted in Opti-MEM (Life Technologies Corp.; Grand Island, N.Y.) to assay for G protein activation as described previously (Rives, M.-L. et al. J. Biol. Chem. 2012, 287, 27050-4; Negri, A.; Rives, M.-L.; Caspers, M. J. et al. J. Chem. Inf. Model. 2013, 53, 521-526). Cells were maintained in the Dulbecco's Modified Eagle Medium (high glucose #11965; Life Technologies) supplemented with 10% FBS (Premium Select, Atlanta Biologicals; Atlanta, Ga.) and 100 U/mL penicillin and 100 μg/mL streptomycin (#15140, Life Technologies). After 24 hours the media was changed, and the experiment was performed 24 hours later (48 hours after transfection).
BRET. Transfected cells were dissociated and resuspended in phosphate-buffered saline (PBS). Approximately 200,000 cells/well were added to a black-framed, white well 96-well plate (#60050; Perkin Elmer; Waltham, Mass.). The microplate was centrifuged and the cells were resuspended in PBS. Then 5 μM of the luciferase substrate coelenterazine H was added to each well for 5 minutes. Following coelenterazine H addition, ligands were added and the BRET signal was measured at 5 minutes on a PHERAstar FS plate reader. Quantification of the BRET signal required calculating the ratio of the light emitted by the energy acceptor, mVenus (510-540 nm), over the light emitted by the energy donor, RLuc8 (485 nm). […] Dose response curves were fit using three-parameter logistics equation in GraphPad Prism 6.

T1 sequence (P35372 whole entry): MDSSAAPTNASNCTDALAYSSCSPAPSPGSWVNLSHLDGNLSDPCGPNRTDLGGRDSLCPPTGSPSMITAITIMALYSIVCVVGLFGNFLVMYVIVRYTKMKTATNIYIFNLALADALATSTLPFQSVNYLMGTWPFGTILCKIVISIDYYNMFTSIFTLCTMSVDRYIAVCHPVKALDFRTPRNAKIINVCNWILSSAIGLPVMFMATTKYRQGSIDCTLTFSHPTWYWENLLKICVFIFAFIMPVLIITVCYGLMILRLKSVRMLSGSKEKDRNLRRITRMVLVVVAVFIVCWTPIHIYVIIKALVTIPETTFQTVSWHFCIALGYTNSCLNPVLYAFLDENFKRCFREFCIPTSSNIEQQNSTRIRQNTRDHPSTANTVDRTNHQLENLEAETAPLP

`COCCCNC1c2ccccc2N(C)S(=O)(=O)c2cc([S+](C)[O-])ccc21` (mixture of isomers) [compound 55, 11-((3-Methoxypropyl)amino)-6-methyl-3-(methylsulfinyl)-6,11-dihydrodibenzo[c,f][1,2]thiazepine 5,5-dioxide] and `COCCCNC1c2ccccc2N(C)S(=O)(=O)c2cc(C)ccc21` (stereo not drawn) [compound 15, 11-((3-Methoxypropyl)amino)-3,6-dimethyl-6,11-dihydrodibenzo[c,f][1,2]thiazepine 5,5-dioxide] cannot be ordered by EC50: less than 20 µM for the first, less than 10 µM for the second.

`COC(C)CCNC1c2ccccc2N(C)S(=O)(=O)c2cc(Cl)ccc21` (mixture of isomers) [compound 67, 3-Chloro-11-((3-methoxybutyl)amino)-6-methyl-6,11-dihydrodibenzo [c,f][1,2]thiazepine 5,5-dioxide] and `COCCNC1c2ccccc2N(C)S(=O)(=O)c2cc(Cl)ccc21` (stereo not drawn) [compound 42, 3-Chloro-11-((2-methoxyethyl)amino)-6-methyl-6,11-dihydrodibenzo [c,f][1,2]thiazepine 5,5-dioxide] cannot be ordered by EC50: less than 10 µM for the first, less than 10 µM for the second.

`COCC(C)CNC1c2ccccc2N(C)S(=O)(=O)c2cc(Cl)ccc21` (mixture of isomers) [compound 68, 3-Chloro-11-((3-methoxy-2-methylpropyl)amino)-6-methyl-6,11-dihydrodibenzo[c,f][1,2]thiazepine 5,5-dioxide] and `CC(C)OCCCNC1c2ccccc2N(C)S(=O)(=O)c2cc(Cl)ccc21` (stereo not drawn) [compound 35, 3-Chloro-11-((3-isopropoxypropyl)amino)-6-methyl-6,11-dihydrodibenzo [c,f][1,2]azepine 5,5-dioxide] cannot be ordered by EC50: less than 10 µM for the first, less than 10 µM for the second.

`CCOC(=O)CCCCCCNC1c2ccccc2S(=O)(=O)N(C)c2ccsc21` (stereo not drawn) [compound 6, Ethyl 7-((4-methyl-5,5-dioxido-4,10-dihydrobenzo[f]thieno[3,2-c][1,2]thiazepin-10-yl)amino) heptanoate] and `CCOC(=O)CCCCCCNC1c2ccccc2N(C)S(=O)(=O)c2cc(C)ccc21` (stereo not drawn) [compound 14, Ethyl 7-((3,6-dimethyl-5,5-dioxido-6,11-dihydrodibenzo[c,f][1,2]thiazepin-11-yl)amino) heptanoate] cannot be ordered by EC50: less than 10 µM for the first, less than 10 µM for the second.

`COCCCNC1c2ccccc2S(=O)(=O)N(C)c2ccsc21` (stereo not drawn) [compound 7, 10-((3-Methoxypropyl)amino)-4-methyl-4,10-dihydrobenzo[f]thieno[3,2-c][1,2]thiazepine 5,5-dioxide] and `COCCCNC1c2ccccc2S(=O)(=O)N(C)c2c(Br)csc21` (stereo not drawn) [compound 43, 3-Bromo-10-((3-methoxypropyl)amino)-4-methyl-4,10-dihydrobenzo[f]thieno[3,2-c][1,2]thiazepine 5,5-dioxide] cannot be ordered by EC50: less than 10 µM for the first, less than 20 µM for the second.

`COCCCNC1c2ccccc2N(C)S(=O)(=O)c2ccccc21` (stereo not drawn) [compound 10, 11-((3-Methoxypropyl)amino)-6-methyl-6,11-dihydrodibenzo[c,f][1,2]thiazepine 5,5-dioxide] and `COCCCNC1c2ccccc2N(C)S(=O)(=O)c2cc(F)ccc21` (stereo not drawn) [compound 40, 3-Fluoro-11-((3-methoxypropyl)amino)-6-methyl-6,11-dihydrodibenzo[c,f] [1,2]thiazepine 5,5-dioxide] cannot be ordered by EC50: less than 10 µM for the first, 5.53 ± 0.25 µM for the second.

`COCCCNC1c2cc(Br)ccc2N(C)S(=O)(=O)c2cc(Cl)ccc21` (stereo not drawn) [compound 11] and `COCCCCNC1c2ccccc2N(C)S(=O)(=O)c2cc(Cl)ccc21` (stereo not drawn) [compound 39, 3-Chloro-11-((4-methoxybutyl)amino)-6-methyl-6,11-dihydrodibenzo [c,f][1,2]thiazepine 5,5-dioxide] cannot be ordered by EC50: less than 10 µM for the first, less than 10 µM for the second.

`CC(=O)OCCCCCCNC1c2ccccc2N(C)S(=O)(=O)c2cc(Cl)ccc21` (stereo not drawn) [compound 13, 6-((3-Chloro-6-methyl-5,5-dioxido-6,11-dihydrodibenzo[c,f][1,2]thiazepin-11-yl)amino)hexyl acetate] and `CCOC(=O)CCCCCCNC1c2ccccc2N(C)S(=O)(=O)c2cc(Cl)ccc21` (stereo not drawn) [compound 34, Ethyl 7-((3-chloro-6-methyl-5,5-dioxido-6,11-dihydrodibenzo[c,f][1,2]thiazepin-11-yl)amino)heptanoate] cannot be ordered by EC50: less than 10 µM for the first, 0.657 ± 0.366 µM for the second.

`Cc1ccc2c(c1)S(=O)(=O)N(C)c1ccccc1C2NCCCCCCC(=O)O` (stereo not drawn) [compound 16] and `CCOC(=O)CCCCCCNC1c2ccccc2N(C)S(=O)(=O)c2cc(F)ccc21` (stereo not drawn) [compound 41, Ethyl 7-((3-fluoro-6-methyl-5,5-dioxido-6,11-dihydrodibenzo[c,f][1,2]thiazepin-11-yl)amino)heptanoate] cannot be ordered by EC50: less than 10 µM for the first, 2.04 ± 0.334 µM for the second.

`CCOC(CCCNC1c2ccccc2N(C)S(=O)(=O)c2cc(Cl)ccc21)OCC` (stereo not drawn) [compound 24, 3-Chloro-11-((4,4-diethoxybutyl)amino)-6-methyl-6,11-dihydrodibenzo[c,f][1,2]thiazepine 5,5-dioxide] and `CCCCCCCNC1c2ccccc2N(C)S(=O)(=O)c2cc(Cl)ccc21` (stereo not drawn) [compound 26, 3-Chloro-11-(heptylamino)-6-methyl-6,11-dihydrodibenzo [c,f][1,2]thiazepine 5,5-dioxide] cannot be ordered by EC50: less than 10 µM for the first, less than 10 µM for the second.

`CN1c2ccccc2C(NCCOCCO)c2ccc(Cl)cc2S1(=O)=O` (stereo not drawn) [compound 25, 3-Chloro-11-((2-(2-hydroxyethoxy)ethyl)amino)-6-methyl-6,11-dihydrodibenzo[c,f][1,2]thiazepine 5,5-dioxide] and `COCCOCCNC1c2ccccc2N(C)S(=O)(=O)c2cc(Cl)ccc21` (stereo not drawn) [compound 36, 3-Chloro-11-((2-(2-methoxyethoxy)ethyl)amino)-6-methyl-6,11-dihydrodibenzo[c,f][1,2]thiazepine 5,5-dioxide] cannot be ordered by EC50: 8.59 ± 0.5 µM for the first, less than 10 µM for the second.

`COCCCNC1c2ccccc2N(C)S(=O)(=O)c2cc(OC)ccc21` (stereo not drawn) [compound 27, 3-Methoxy-11-((3-methoxypropyl)amino)-6-methyl-6,11-dihydrodibenzo [c,f][1,2]thiazepine 5,5-dioxide] and `COCCCNC1c2ccccc2N(C)S(=O)(=O)c2cc(I)ccc21` (stereo not drawn) [compound 48, 3-Iodo-11-((3-methoxypropyl)amino)-6-methyl-6,11-dihydrodibenzo [c,f][1,2]thiazepine 5,5-dioxide] cannot be ordered by EC50: less than 10 µM for the first, 0.0152 ± 0.0069 µM for the second.

`CN1c2ccccc2C(NCCCC(F)(F)F)c2ccc(Cl)cc2S1(=O)=O` (stereo not drawn) [compound 28, 3-Chloro-6-methyl-11-((4,4,4-trifluorobutyl)amino)-6,11-dihydrodibenzo [c,f][1,2]thiazepine 5,5-dioxide] and `CSCCCNC1c2ccccc2N(C)S(=O)(=O)c2cc(Cl)ccc21` (stereo not drawn) [compound 33, 3-Chloro-6-methyl-11-((3-(methylthio)propyl)amino)-6,11-dihydrodibenzo[c,f][1,2]thiazepine 5,5-dioxide] cannot be ordered by EC50: less than 10 µM for the first, less than 10 µM for the second.

`COCCCNC1c2ccccc2N(C)S(=O)(=O)c2cc(Oc3ccccc3)ccc21` (stereo not drawn) [compound 29, 11-((3-Methoxypropyl)amino)-6-methyl-3-phenoxy-6,11-dihydrodibenzo [c,f][1,2]thiazepine 5,5-dioxide] and `COCCCCCNC1c2ccccc2N(C)S(=O)(=O)c2cc(Cl)ccc21` (stereo not drawn) [compound 32, 3-Chloro-11-((5-methoxypentyl)amino)-6-methyl-6,11-dihydrodibenzo [c,f][1,2]thiazepine 5,5-dioxide] cannot be ordered by EC50: less than 10 µM for the first, 0.563 ± 0.247 µM for the second.

First: CN1c2ccccc2C(NCCCCCO)c2ccc(Cl)cc2S1(=O)=O (stereo not drawn) [compound 30, 3-Chloro-11-((5-hydroxypentyl)amino)-6-methyl-6,11-dihydrodibenzo [c,f][1,2]thiazepine 5,5-dioxide]
Second: CN1c2ccccc2C(NCCCC2OCCCO2)c2ccc(Cl)cc2S1(=O)=O (stereo not drawn) [compound 31, 11-((3-(1,3-Dioxan-2-yl)propyl)amino)-3-chloro-6-methyl-6,11-dihydrodibenzo[c,f][1,2]thiazepine 5,5-dioxide]
The EC50 of the first is higher: greater than 50 µM for the first, less than 10 µM for the second.

`CN1c2ccccc2C(NCC2CCOC2)c2ccc(Cl)cc2S1(=O)=O` (stereo not drawn) [compound 46] and `CN1CCCC1CCNC1c2ccccc2N(C)S(=O)(=O)c2cc(Cl)ccc21` (stereo not drawn) [compound 47] cannot be ordered by EC50: less than 10 µM for the first, less than 20 µM for the second.

`CCOC(=O)CCCCCCNC1c2ccccc2N(C)S(=O)(=O)c2cc(I)ccc21` (stereo not drawn) [compound 49, Ethyl 7-((3-iodo-6-methyl-5,5-dioxido-6,11-dihydrodibenzo[c,f][1,2]thiazepin-11-yl)amino)heptanoate] and `COCCCNC1c2ccccc2S(=O)(=O)N(C)c2c(OC)cccc21` (stereo not drawn) [compound 50] cannot be ordered by EC50: 0.137 ± 0.017 µM for the first, less than 20 µM for the second.

same assay, conditions: BRET G protein activation, HEK-293T; mean ± SEM of independent trials; read-out: EC50 Human MOR

First: 7-((3-Iodo-6-methyl-5,5-dioxido-6,11-dihydrodibenzo [c,f][1,2]thiazepin-11-yl)amino)heptanoic acid hydrochloride salt [compound 84]
Second: CCOCCCNC1c2ccccc2N(C)S(=O)(=O)c2cc(Cl)ccc21 (stereo not drawn) [compound 37, 3-Chloro-11-((3-ethoxypropyl)amino)-6-methyl-6,11-dihydrodibenzo [c,f][1,2]thiazepine 5,5-dioxide]
The EC50 of the first is 22-fold lower: 0.04 µM for the first, 0.893 ± 0.147 µM for the second.
